In patent publication US11559530B2, “Oral testosterone undecanoate therapy” (Lipocine Inc., priority 2016, dated 2023):

Assay: Clinical study of oral TU testosterone therapy in hypogonadal males: serum testosterone Cavg and Cmax responder analysis
Format: in vivo, human
Conditions: for Cavg >300 ng/dL ≥75% patients / Cavg >300 ng/dL ≥80% patients / Cmax > 1500 ng/dL <15% patients / Cmax > 1500 ng/dL <20% patients / Cmax > 1800 ng/dL <5% patients / Cmax > 1800 ng/dL <10% patients / Cmax > 2500 ng/dL <2% patients / Cmax > 2500 ng/dL none of patients: with food
Description: The dosage form from Example B of Composition 4 with dosing regimen (Regimen #9-16) of dosing category BID-equal dose with daily dose range 150-600 mg were used for a Clinic Study of Testosterone Therapy for hypogonadal males.
The clinical study was a randomized double-blind, placebo-controlled dose escalating study of the safety, efficacy, tolerability, and pharmacokinetics of testosterone therapy in hypogonadal males. This clinic study was a single and multiple, ascending-dose study that was designed to determine the optimal starting, titration (if appropriate), or single fixed dose for safety and efficacy targeted by the US FDA. The study also verified the time for testosterone levels to reach steady state and identified a suitable fixed dose dosing regimen that satisfies an unmet need for safety and efficacy for oral TT.
This study was carried out with conditions of a single-center, randomized, double-blind, placebo-controlled, ascending multiple-dose, and serial-group in adult hypogonadal male subjects. The objectives of this study were: • a) To assess the safety, efficacy, and tolerability of escalating single and multiple oral doses of TU dosage forms in hypogonadal males • b) To determine the pharmacokinetics (PK) of testosterone (T), DHT, TU, DHTU, and estradiol (E2) after single and multiple oral doses of TU dosage forms in hypogonadal males • C) To identify a fixed dose dosing regimen satisfying US FDA targets, without needing to titrate, for restoring serum T levels in hypogonadal males to the normal T range.
The dosing regimen for this clinical study ranged from 150 mg daily dose (75 mg BID dose) to 600 mg daily dose (300 mg BID dose). Observed pharmacokinetic parameters (T, DHT, TU, DHTU, and E2) after single and multiple oral doses of TU dosage forms in the patients were recorded in connection with each daily dose listed in the report.
The overall analyzed results of this clinical study were plotted according to % of patients for safety (Cmax<1,500 ng/dL) and efficacy (Cavg>300 ng/dL) with a variety of dosing regimens. Note that only doses that were multiples of 75 mg were tested in the clinical study, the results predicted for the other doses are estimated from these values.

[1] = Regimen #1, TID-equal dose, TU 75/75/75 mg
[2] = Regimen #2, TID-equal dose, TU 112/112/112 mg
[3] = Regimen #3, TID-equal dose, TU 125/125/125 mg
[4] = Regimen #4, TID-equal dose, TU 150/150/150 mg
[5] = Regimen #5, TID-equal dose, TU 188/188/188 mg
[6] = Regimen #6, TID-equal dose, TU 225/225/225 mg
[7] = Regimen #7, TID-equal dose, TU 237/237/237 mg
[8] = Regimen #8, TID-equal dose, TU 250/250/250 mg
[9] = Regimen #9, BID-equal dose (AM/PM), TU 75/75 mg
[10] = Regimen #10, BID-equal dose (AM/PM), TU 150/150 mg
[11] = Regimen #11, BID-equal dose (AM/PM), TU 215/215 mg
[12] = Regimen #12, BID-equal dose (AM/PM), TU 225/225 mg
[13] = Regimen #13, BID-equal dose (AM/PM), TU 237/237 mg
[14] = Regimen #14, BID-equal dose (AM/PM), TU 250/250 mg
[15] = Regimen #15, BID-equal dose (AM/PM), TU 265/265 mg
[16] = Regimen #16, BID-equal dose (AM/PM), TU 300/300 mg
[17] = Regimen #17, BID-different dose (AM/PM), TU 75/225 mg
[18] = Regimen #18, BID-different dose (AM/PM), TU 75/300 mg
[19] = Regimen #19, BID-different dose (AM/PM), TU 150/225 mg
[20] = Regimen #20, BID-different dose (AM/PM), TU 225/150 mg
[21] = Regimen #21, BID-different dose (AM/PM), TU 225/300 mg
[22] = Regimen #22, BID-different dose (AM/PM), TU 300/75 mg
[23] = Regimen #23, BID-different dose (AM/PM), TU 300/150 mg
[24] = Regimen #24, BID-different dose (AM/PM), TU 300/225 mg

## CCCCCCCCCCC(=O)O[C@H]1CC[C@H]2[C@@H]3CCC4=CC(=O)CC[C@]4(C)[C@H]3CC[C@]12C [TU, testosterone undecanoate]
[1]
  Cavg >300 ng/dL ≥75% patients: No
  Cavg >300 ng/dL ≥80% patients: No
[2]
  Cavg >300 ng/dL ≥75% patients: No
  Cavg >300 ng/dL ≥80% patients: No
[3]
  Cavg >300 ng/dL ≥75% patients: No
  Cavg >300 ng/dL ≥80% patients: No
[4]
  Cavg >300 ng/dL ≥75% patients: Yes
  Cavg >300 ng/dL ≥80% patients: Yes
[5]
  Cavg >300 ng/dL ≥75% patients: Yes
  Cavg >300 ng/dL ≥80% patients: Yes
[6]
  Cavg >300 ng/dL ≥75% patients: Yes
  Cavg >300 ng/dL ≥80% patients: Yes
  Cmax > 1500 ng/dL <15% patients: No
  Cmax > 1500 ng/dL <20% patients: Yes
  Cmax > 1800 ng/dL <5% patients: No
  Cmax > 1800 ng/dL <10% patients: Yes
  Cmax > 2500 ng/dL <2% patients: Yes
  Cmax > 2500 ng/dL none of patients: No
[7]
  Cavg >300 ng/dL ≥75% patients: Yes
  Cavg >300 ng/dL ≥80% patients: Yes
  Cmax > 1500 ng/dL <15% patients: No
  Cmax > 1500 ng/dL <20% patients: Yes
  Cmax > 1800 ng/dL <5% patients: No
  Cmax > 1800 ng/dL <10% patients: Yes
  Cmax > 2500 ng/dL <2% patients: No
  Cmax > 2500 ng/dL none of patients: No
[8]
  Cavg >300 ng/dL ≥75% patients: Yes
  Cavg >300 ng/dL ≥80% patients: Yes
  Cmax > 1500 ng/dL <15% patients: No
  Cmax > 1500 ng/dL <20% patients: No
  Cmax > 1800 ng/dL <5% patients: No
  Cmax > 1800 ng/dL <10% patients: No
  Cmax > 2500 ng/dL <2% patients: No
  Cmax > 2500 ng/dL none of patients: No
[9]
  Cavg >300 ng/dL ≥75% patients: No
  Cavg >300 ng/dL ≥80% patients: No
  Cmax > 1500 ng/dL <15% patients: Yes
  Cmax > 1500 ng/dL <20% patients: Yes
  Cmax > 1800 ng/dL <5% patients: Yes
  Cmax > 1800 ng/dL <10% patients: Yes
  Cmax > 2500 ng/dL <2% patients: Yes
  Cmax > 2500 ng/dL none of patients: Yes
[10]
  Cavg >300 ng/dL ≥75% patients: No
  Cavg >300 ng/dL ≥80% patients: No
  Cmax > 1500 ng/dL <15% patients: Yes
  Cmax > 1500 ng/dL <20% patients: Yes
  Cmax > 1800 ng/dL <5% patients: Yes
  Cmax > 1800 ng/dL <10% patients: Yes
  Cmax > 2500 ng/dL <2% patients: Yes
  Cmax > 2500 ng/dL none of patients: Yes
[11]
  Cavg >300 ng/dL ≥75% patients: Yes
  Cavg >300 ng/dL ≥80% patients: No
  Cmax > 1500 ng/dL <15% patients: Yes
  Cmax > 1500 ng/dL <20% patients: Yes
  Cmax > 1800 ng/dL <5% patients: Yes
  Cmax > 1800 ng/dL <10% patients: Yes
  Cmax > 2500 ng/dL <2% patients: Yes
  Cmax > 2500 ng/dL none of patients: Yes
[12]
  Cavg >300 ng/dL ≥75% patients: Yes
  Cavg >300 ng/dL ≥80% patients: Yes
  Cmax > 1500 ng/dL <15% patients: Yes
  Cmax > 1500 ng/dL <20% patients: Yes
  Cmax > 1800 ng/dL <5% patients: Yes
  Cmax > 1800 ng/dL <10% patients: Yes
  Cmax > 2500 ng/dL <2% patients: Yes
  Cmax > 2500 ng/dL none of patients: Yes
[13]
  Cavg >300 ng/dL ≥75% patients: Yes
  Cavg >300 ng/dL ≥80% patients: Yes
  Cmax > 1500 ng/dL <15% patients: Yes
  Cmax > 1500 ng/dL <20% patients: Yes
  Cmax > 1800 ng/dL <5% patients: Yes
  Cmax > 1800 ng/dL <10% patients: Yes
  Cmax > 2500 ng/dL <2% patients: Yes
  Cmax > 2500 ng/dL none of patients: Yes
[14]
  Cavg >300 ng/dL ≥75% patients: Yes
  Cavg >300 ng/dL ≥80% patients: Yes
  Cmax > 1500 ng/dL <15% patients: No
  Cmax > 1500 ng/dL <20% patients: Yes
  Cmax > 1800 ng/dL <5% patients: Yes
  Cmax > 1800 ng/dL <10% patients: Yes
  Cmax > 2500 ng/dL <2% patients: Yes
  Cmax > 2500 ng/dL none of patients: Yes
[15]
  Cavg >300 ng/dL ≥75% patients: Yes
  Cavg >300 ng/dL ≥80% patients: Yes
  Cmax > 1500 ng/dL <15% patients: No
  Cmax > 1500 ng/dL <20% patients: Yes
  Cmax > 1800 ng/dL <5% patients: No
  Cmax > 1800 ng/dL <10% patients: Yes
  Cmax > 2500 ng/dL <2% patients: Yes
  Cmax > 2500 ng/dL none of patients: No
[16]
  Cavg >300 ng/dL ≥75% patients: Yes
  Cavg >300 ng/dL ≥80% patients: Yes
  Cmax > 1500 ng/dL <15% patients: No
  Cmax > 1500 ng/dL <20% patients: No
  Cmax > 1800 ng/dL <5% patients: No
  Cmax > 1800 ng/dL <10% patients: Yes
  Cmax > 2500 ng/dL <2% patients: Yes
  Cmax > 2500 ng/dL none of patients: No
[17]
  Cavg >300 ng/dL ≥75% patients: No
  Cavg >300 ng/dL ≥80% patients: No
  Cmax > 1500 ng/dL <15% patients: Yes
  Cmax > 1500 ng/dL <20% patients: Yes
  Cmax > 1800 ng/dL <5% patients: Yes
  Cmax > 1800 ng/dL <10% patients: Yes
  Cmax > 2500 ng/dL <2% patients: Yes
  Cmax > 2500 ng/dL none of patients: Yes
[18]
  Cavg >300 ng/dL ≥75% patients: No
  Cavg >300 ng/dL ≥80% patients: No
  Cmax > 1500 ng/dL <15% patients: Yes
  Cmax > 1500 ng/dL <20% patients: Yes
  Cmax > 1800 ng/dL <5% patients: No
  Cmax > 1800 ng/dL <10% patients: Yes
  Cmax > 2500 ng/dL <2% patients: Yes
  Cmax > 2500 ng/dL none of patients: No
[19]
  Cavg >300 ng/dL ≥75% patients: No
  Cavg >300 ng/dL ≥80% patients: No
  Cmax > 1500 ng/dL <15% patients: Yes
  Cmax > 1500 ng/dL <20% patients: Yes
  Cmax > 1800 ng/dL <5% patients: Yes
  Cmax > 1800 ng/dL <10% patients: Yes
  Cmax > 2500 ng/dL <2% patients: Yes
  Cmax > 2500 ng/dL none of patients: Yes
[20]
  Cavg >300 ng/dL ≥75% patients: Yes
  Cavg >300 ng/dL ≥80% patients: No
  Cmax > 1500 ng/dL <15% patients: Yes
  Cmax > 1500 ng/dL <20% patients: Yes
  Cmax > 1800 ng/dL <5% patients: Yes
  Cmax > 1800 ng/dL <10% patients: Yes
  Cmax > 2500 ng/dL <2% patients: Yes
  Cmax > 2500 ng/dL none of patients: Yes
[21]
  Cavg >300 ng/dL ≥75% patients: Yes
  Cavg >300 ng/dL ≥80% patients: Yes
  Cmax > 1500 ng/dL <15% patients: No
  Cmax > 1500 ng/dL <20% patients: No
  Cmax > 1800 ng/dL <5% patients: No
  Cmax > 1800 ng/dL <10% patients: Yes
  Cmax > 2500 ng/dL <2% patients: Yes
  Cmax > 2500 ng/dL none of patients: No
[22]
  Cavg >300 ng/dL ≥75% patients: No
  Cavg >300 ng/dL ≥80% patients: No
  Cmax > 1500 ng/dL <15% patients: No
  Cmax > 1500 ng/dL <20% patients: Yes
  Cmax > 1800 ng/dL <5% patients: No
  Cmax > 1800 ng/dL <10% patients: Yes
[23]
  Cavg >300 ng/dL ≥75% patients: Yes
  Cavg >300 ng/dL ≥80% patients: Yes
[24]
  Cavg >300 ng/dL ≥75% patients: Yes
  Cavg >300 ng/dL ≥80% patients: Yes
Fixed dose, 430 mg TU daily (215 mg BID-equal) to 480 mg TU daily (240 mg BID-equal)
  US FDA T level targets for safety and efficacy: can satisfy US FDA T level targets for safety and efficacy without titration
